This note sets out measurements from publication PMC9100884, “Semi-Synthesis of N-Aryl Amide Analogs of Piperine from Piper nigrum and Evaluation of Their Antitrypanosomal, Antimalarial, and Anti-SARS-CoV-2 Main Protease Activities” (Molecules, 2022).

One data set deals with Vero cells. The data set can be described thus: Cytotoxicity against Vero cells (sulforhodamine B assay). Type of data set: cell-based, African green monkey. To be noted: for EC50: Chlorocebus sabaeus, 72 h, read-out: EC50 ± S.E.M. Vero; for cytotoxicity against Vero cells (in words): at the concentration of 100 μM. The method, then:
Cytotoxicity test of selected analogues was performed against the African green monkey kidney fibroblast (Vero cells) obtained from Bioassay laboratory, BIOTEC, NSTDA, Thailand. The cells of less than 20 passages were maintained continuously in a MEM/EBSS medium supplemented with 10% heated fetal bovine serum (GE Healthcare, PAA Laboratories GmbH, Pasching, Aurstria), 2.2 g/L sodium bicarbonate (Emsure, ACS, Reag. Ph Eur, Darmstadt, Germany), and 1% sodium pyruvate (Sigma). Cytotoxicity was determined by sulforhodamine B assay. Briefly, 1.9 × 10^4 Vero cells were incubated with each compound at final concentrations of 0.0001–100 µM at 37 °C under 5% CO2. After incubation for 72 h, the cells were fixed with 10% trichloroacetic acid (Sigma) at 4 °C for 45 min, washed gently with tap-water and air-dried at room temperature for overnight. Then, the fixed protein was stained with 0.057% w/v of sulforhodamine B (Sigma). The excess dye was washed repeatedly with 1% v/v of acetic acid. The plates were allowed to air-dry at room temperature for overnight. Finally, the protein-bound dye in each well was dissolved with 50 µL of 10× Tris-based solution. The optical density (OD) was measured by a microplate reader at wavelength 510 nm. The EC50 value of each compound was determined from the dose-response curve. Data were shown as mean and standard error of the mean (S.E.M.) of three biological independent experiments.
(In general: In SRB staining, fixed cells bind dye roughly in proportion to their protein.)

For another data set, the system named is Vero E6 cell lines. The data set can be described thus: Cytotoxicity against Vero E6 cells (CellTiter 96 AQueous One). Type of data set: cell-based. To be noted: for EC50: Chlorocebus sabaeus, read-out: EC50 ± S.E.M. Vero E6. How it is done: The cytotoxicity of the active compound was tested with Vero E6 cell lines. Each cell line was seeded at 1 × 10^4 cells per well into 96-well plates in growth medium and incubated overnight. The compounds were prepared at the concentrations of 2–500 µM in DMSO and added to the cells at the DMSO final concentrations of 0.1%. Cells were incubated for 48 h before analyzing the cell viability using CellTiter 96® AQueous One Solution Cell Proliferation Assay kit (Promega, Madison, WI, USA) according to the manufacturer’s protocol. The plate was read at the A450 by VICTORTM X3 microplate reader (PerkinElmer, Waltham, MA, USA). The EC50 values of the cells were calculated from nonlinear regression analysis. The results were reported as means and standard error of mean (S.E.M.) from three biological independent experiments.

Data set [1] deals with T. brucei rhodesiense (STB900). Nature of the data set: In vitro antitrypanosomal assay (resazurin). Type of data set: cell-based, Trypanosoma brucei rhodesiense. To be noted: for IC50: Trypanosoma brucei, RHODESIENSE, read-out: IC50 ± S.E.M. Antitrypanosomal against T. brucei rhodesiense. How it is done: T. brucei rhodesiense (STB900) was maintained continuously in MEM/EBSS medium (pH 7.3) supplemented with 3 g/L sodium bicarbonate, 4.5 g/L glucose, 25 mM HEPES, 0.05 mM bathocuproinedisulfonic disodium salt, 1.5 mM L-cysteine, 1 mM hypoxanthine, 0.16 mM thymidine, 1 mM sodium pyruvate, 0.2 mM 2-mercaptoethanol, 1% MEM non-essential amino acid, and 15% v/v heated ([…]) FBS in a 5% CO2 incubator [47]. To evaluate the antitrypanosomal activity, trypanosome cells were seeded at 2 × 10^4 cells/well in 175 µL culture media/well and incubated with 25 µL of varying concentrations of each test compound in a 96-well plate under the culture conditions. […] Following 72 h incubation, 20 μL of resazurin was added to each well. The reaction was further incubated at 37 °C under 5% CO2 for 3 h to allow for the irreversible reduction of resazurin (violet color) to resorufin (pink color) by viable trypanosome cells. Fluorescence signals were measured by a spectrofluorometer using a 530-nm excitation wavelength and a 585-nm emission wavelength. […] The result for each compound was normalized using the control media for the overall background subtraction (0%), and untreated T. brucei rhodesiense with 0.1% DMSO was used as the 100% control.
(In general: Alamar Blue is a resazurin reagent that responds to reducing activity.)

For a further data set, the system named is 3D7 P. falciparum. Nature of the data set: In vitro antimalarial assay (SYBR Green I). Type of data set: cell-based. To be noted: Plasmodium falciparum, read-out: IC50 ± S.E.M. Antimalarial against 3D7 P. falciparum.
The mark [2] stands for this setting: cytotoxicity, Vero cells, sulforhodamine B, 0.0001–100 µM.
[3] abbreviates: Vero C1008, cytotoxicity, Vero E6 cells, 48 h, 2–500 µM.

Each structure is given as a SMILES string. Read-outs that look alike come from different tables or passages of the source.

The EC50 is the concentration at which the effect is half-maximal. One may read the IC50 as the midpoint of a concentration-inhibition curve. Take `O=C(/C=C/C=C/c1ccc2c(c1)OCO2)Nc1ccccc1` [Compound 3, (2E,4E)-5-(benzo[d][1,3]dioxol-5-yl)-N-phenylpenta-2,4-dienamide]: the EC50 in the data set with Vero cells (setting [2]) is > 100 µM; in the data set on Vero E6 cell lines (setting [3]), > 500 µM. In addition, the IC50 in data set [1] (72 h incubation, resazurin) amounted to 53.5 ± 1.77 µM; in the data set with 3D7 P. falciparum (3D7 strain, 48 h, SYBR Green I) it was 25.8 ± 1.56 µM.
For the compound `COc1ccc(NC(=O)/C=C/C=C/c2ccc3c(c2)OCO3)c(OC)c1` [Compound 4, (2E,4E)-5-(benzo[d][1,3]dioxol-5-yl)-N-(2,4-dimethoxyphenyl)penta-2,4-dienamide], the results for the EC50 with Vero cells (setting [2]) and in the data set with Vero E6 cell lines (setting [3]) were > 100 µM and > 500 µM, respectively. Further, the IC50 amounted to 19.9 ± 2.28 µM in data set [1] (72 h incubation, resazurin) and 29.4 ± 3.54 µM with 3D7 P. falciparum (3D7 strain, 48 h, SYBR Green I).
Consider `COc1ccc(OC)c(NC(=O)/C=C/C=C/c2ccc3c(c2)OCO3)c1` [Compound 5, (2E,4E)-5-(benzo[d][1,3]dioxol-5-yl)-N-(2,5-dimethoxyphenyl)penta-2,4-dienamide], for which the EC50 in the data set on Vero cells (setting [2]) is > 100 µM; with Vero E6 cell lines (setting [3]), > 500 µM. Besides, the “cytotoxicity against Vero cells (in words)” value in the data set on Vero cells is given as “no cytotoxicity”. Besides, the IC50 in data set [1] (72 h incubation, resazurin) worked out at 15.5 ± 3.09 µM; with 3D7 P. falciparum (3D7 strain, 48 h, SYBR Green I), 24.6 ± 1.91 µM.
In the case of `N=C(N)c1ccc(OCCCCCOc2ccc(C(=N)N)cc2)cc1` [Pentamidine, reference compound], the IC50 in data set [1] (72 h incubation, resazurin) stood at 0.016 ± 0.002 µM.
`O=C(O)/C=C/C=C/c1ccc2c(c1)OCO2` [Piperic acid (2), Piperic acid]: the EC50 in the data set on Vero cells (Vero) is > 100 µM; in the data set with Vero E6 cell lines (Vero C1008, 48 h) it was > 500 µM. In the data set on Vero cells, the “cytotoxicity against Vero cells (in words)” value is listed as “non-toxic”. For the same compound, the “cytotoxicity against Vero E6 cell lines (in words)” value in the data set with Vero E6 cell lines (at the concentration of 500 μM) is “non-toxic”. Further, the IC50 in data set [1] (72 h) was > 100 µM; with 3D7 P. falciparum (3D7, 48 h), 63.5 ± 2.43 µM. The “activity against T. brucei rhodesiense (in words)” value in data set [1] (at 100 μM) is “inactive”.
`O=C(/C=C/C=C/c1ccc2c(c1)OCO2)N1CCCCC1` [Piperine (1), Piperine]: the figures for the EC50 in the data set on Vero cells (setting [2]) and with Vero E6 cell lines (setting [3]) were > 100 µM and 132 ± 2.91 µM, respectively. The “cytotoxicity against Vero cells (in words)” value in the data set with Vero cells is “non-toxic”. The IC50 in data set [1] (72 h incubation, resazurin) is 56.7 ± 0.98 µM; in the data set with 3D7 P. falciparum (3D7 strain, 48 h, SYBR Green I), 61.2 ± 2.83 µM.
